The subject of series [1] is Klebsiella pneumoniae. Briefly: In vivo efficacy in systemic infection due to Klebsiella pneumoniae (A 9664) in mice. It counts as functional. As to conditions: read-out: PD50.
Series [2] concerns Pseudomonas aeruginosa. Briefly: In vitro antibacterial activity against Pseudomonas aeruginosa (A 9843). The format is functional. As to conditions: Pseudomonas aeruginosa; read-out: MIC.
In series [3] the test system is Klebsiella pneumoniae. Briefly: In vitro antibacterial activity against Klebsiella pneumoniae (A 9664). The format is functional. The following applies: Klebsiella pneumoniae; read-out: MIC.
Series [4] in a line: Half-life in plasma after oral administration in dog (25 mg/kg). It counts as ADME, organism-based, Canis lupus familiaris.
Another series concerns Canis familiaris. Kind of series: Area under the concentration/ time in plasma after oral administration in dog (25 mg/kg). The format is ADME, organism-based, Canis lupus familiaris. The following applies: in vivo.
In series [5] the test system is Escherichia coli. Briefly: In vitro antibacterial activity against Escherichia coli (A 15119). It counts as functional. The following applies: Escherichia coli; read-out: MIC.
The nature of series [6]: Urinary recovery after 24 hr in plasma after oral administration in dog (25 mg/kg). It counts as ADME, organism-based, Canis lupus familiaris. The following applies: urine, read-out: UR.
The test system of a further series is Enterobacter cloacae. Briefly: In vitro antibacterial activity against Enterobacter cloacae (A 9656). It counts as functional. As to conditions: Enterobacter cloacae; read-out: MIC.
Series [7] is described as follows: Lethal dose of compound in OF1-strain female swiss mice after oral administration. The format is toxicity, organism-based. As to conditions: mouse, in vivo.
For another series, the system named is Morganella morganii. Kind of series: In vitro antibacterial activity against M. morganii(A 15153). The format is functional.
The test system of series [8] is Staphylococcus aureus. Briefly: In vitro antibacterial activity against Staphylococcus aureus Smith (A9537). It counts as functional. The following applies: Staphylococcus aureus; read-out: MIC.
Series [9] is described as follows: Maximum concentration in plasma after oral administration in dog (25 mg/kg). It counts as ADME, organism-based, Canis lupus familiaris. The arrangement: dose 25 mg/kg, route oral.
The test system of series [10] is Pseudomonas aeruginosa. Briefly: In vivo efficacy in systemic infection due to Pseudomonas aeruginosa (A 9843) in mice. The format is functional. The following applies: read-out: PD50.
Series [11] deals with Escherichia coli. Kind of series: In vivo efficacy in systemic infection due to Escherichia coli (A 15119) in mice. It counts as functional. The following applies: read-out: PD50.
Series [12] relates to Staphylococcus aureus. Kind of series: In vivo efficacy in systemic infection due to Staphylococcus aureus Smith (A 9537) in mice. The following applies: read-out: PD50. It counts as functional.

Converted amounts (≈) assume the structure as drawn.

The term MIC denotes the least concentration at which growth counts as inhibited. By half-life is commonly meant the time in which the quantity being followed falls by half. A word on the LD50: it is the dose at which mortality reaches 50%. A low value points to a more toxic substance. By Cmax is commonly meant the highest concentration seen after dosing.

With `CC(C)(C)n1cc(C(=O)O)c(=O)c2cc(F)c(N3CCNCC3)nc21`, the ED50 in the series on Klebsiella pneumoniae [1] came out at 5 mg/kg; with Pseudomonas aeruginosa [10] it was 12 mg/kg; in the series with Escherichia coli [11], 2.4 mg/kg; in the series on Staphylococcus aureus [12], 1.1 mg/kg. In addition, the MIC with Pseudomonas aeruginosa [2] is 1 µg/mL (≈ 2.87 µM); with Klebsiella pneumoniae [3], 0.13 µg/mL (≈ 0.373 µM); in the series on Escherichia coli [5] it was 0.015 µg/mL (≈ 0.0431 µM); with Enterobacter cloacae it was 0.06 µg/mL (≈ 0.172 µM); against Morganella morganii it was 0.25 µg/mL (≈ 0.718 µM); in the series with Staphylococcus aureus [8], 0.06 µg/mL (≈ 0.172 µM). In [4], the half-life was 4.8 h. Besides, the AUC with Canis familiaris turned out to be 50 µg/mL. Further, the dose excreted at 24 h in [6] was found to be 12%. The compound further yielded an LD50 in series [7] of more than 2500 mg/kg. The compound also returned a peak concentration (Cmax) in series [9] of 5800 ng/mL.

The record behind these values is ChEMBL document CHEMBL1124630, “Fluoronaphthyridines and quinolones as antibacterial agents. 1. Synthesis and structure-activity relationships of new 1-substituted derivatives” (J Med Chem, 1989).
